Read-outs that look alike come from different tables or passages of the source.
Key:
[1] = biological target: T1, HSV-1 helicase-primase (Human herpesvirus 1, UniProt P10189+P10236); test: HSV-1 DNA-dependent ATPase assay (inhibition of HSV-1 helicase-primase); type: biochemical
T1 construct: made in house; host or cells: Sf21 insect cells triply infected with recombinant baculoviruses (UL5, UL8, UL52)
How it was run: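 Holoenzyme (UL5/UL8/UL52) expressed in baculovirus-infected Sf21 cells and purified, used at 3 μg/mL with 4 mM ATP and 25 μM primed M13 ssDNA in HEPES pH 7.5, 5.5 mM MgCl2, 3.3% DMSO. Incubated 20 min at 34°. Released phosphate read by malachite green at 650 nm, and activity taken from net absorbance with versus without inhibitor.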

[2] = test system: HCMV (strain AD169); test: Inhibition of HCMV replication, ELISA assay (Hs-68 cells); type: cell-based, Human Cytomegalovirus (HCMV); details: read-out: ELISA CMV EC50
Description: C) Inhibition of Human Cytomegalovirus (HCMV) Replication
The effect of compounds on the replication of HCMV has been measured by using an ELISA-based assay (ELISA) and a plaque reduction assay (PRA).
Hs-68 cells (ATCC # CRL 1635) were seeded in 96 well microtiter plates at 10,000 cells/well in 100 μL of DMEM medium (Gibco Canada Inc.) supplemented with 10% fetal bovine serum (FBS, Gibco Canada Inc.). The plates were incubated for 3 days at 37° to allow the cells to reach 80-90% confluency prior to the assay.
The medium was removed from wells by aspiration. The cells then were infected at a multiplicity of infection (MOI) of 0.01 PFU/cell with 50 μL of HCMV (strain AD169, ATCC VR-538) in DMEM medium supplemented with 5% heat inactivated FBS (assay medium). The virus was allowed to adsorb to cells for 2 h at 37°. Following viral adsorption, the medium was removed from the wells by aspiration. The cells were washed twice with 200 μL of assay medium to remove unabsorbed virus. The cells were then incubated with or without 100 μL of appropriate concentrations of test reagent in assay medium. After 8 days of incubation at 37°, the extent of viral replication was determined by an ELISA assay which detects the late structural protein p28 of HCMV.
Eight days after infection, the medium was aspirated from the wells. Non-specific binding sites were blocked by adding 200 μL of phosphate buffered saline containing 1% (w/v) bovine serum albumin (blocking buffer) to each well and incubating the plates for 30 min at room temperature. After removal of the blocking buffer by aspiration, the cells were fixed with 100 μL of cold ethanol-acetone solution (95:5) per well. The plates were placed at -20° for 30 min. The plates were washed 4 times with phosphate buffered saline containing 0.05% (v/v) polyoxyethylene sorbitan monolaurate (Tween®). Thereafter, 100 μL of mAb UL99 (Advanced Biotechnologies Inc., #13-130-100) recognizing HCMV protein p28 was added to each wells and plates were incubated for 2 h at room temperature. The plates were washed four times with 200 μL of the above-noted phosphate buffered saline/Tween-20® solution. The cells were then incubated with 100 μL of sheep anti-mouse IgGγ horseradish peroxidase conjugated for 2 h at room temperature. The plates were then washed four times with 200 μL of above-noted phosphate buffered saline/Tween-20® solution. Thereafter, 100 μL of ortho phenylenediamine dihydrochloride (OPD, Gibco Canada Inc.) solution was added to each well and the plates were agitated on a microplate shaker for 30 min in the dark. Color development was monitored at 450 nm using a microplate spectrophotometer.
The SAS program was used to calculate the % inhibition of viral replication and to generate EC50 values.
The EC50 values obtained according to this assay method for certain thiazolylphenyl derivatives of this invention are listed in the following tables under the heading ELISA CMV.

[3] = test system: HSV-1 strain F or KOS; test: Inhibition of herpes simplex virus (HSV-1) replication in cell culture (BHK-21 cells, glycoprotein C ELISA); type: cell-based
How it was run: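 BHK-21 clone 13 cells infected with HSV-1 F or KOS at MOI 0.05 PFU/cell for 1 h at 37°, washed, then treated with compound in α-MEM/2% FBS for 24 h. Late glycoprotein C quantified by ELISA (mAb C11, HRP/OPD, 450 nm); EC50 from % inhibition.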

[4] = Human betaherpesvirus 5, AD169, Hs68, Group 1 Table 3 entries
[5] = Human alphaherpesvirus 1, BHK-21, Group 1 Table 3 entries
[6] = Human betaherpesvirus 5, AD169, Hs68, Group 1 Table 1 entries
[7] = Human alphaherpesvirus 1, BHK-21, Group 1 Table 1 entries
[8] = Human betaherpesvirus 5, AD169, Hs68, Group 1 Table 5 entries
[9] = Human alphaherpesvirus 1, BHK-21, Group 1 Table 5 entries
[10] = Human betaherpesvirus 5, AD169, Hs68, Group 1 Table 6 entries
[11] = Human alphaherpesvirus 1, BHK-21, Group 1 Table 6 entries

T1 sequence (P10192 whole entry): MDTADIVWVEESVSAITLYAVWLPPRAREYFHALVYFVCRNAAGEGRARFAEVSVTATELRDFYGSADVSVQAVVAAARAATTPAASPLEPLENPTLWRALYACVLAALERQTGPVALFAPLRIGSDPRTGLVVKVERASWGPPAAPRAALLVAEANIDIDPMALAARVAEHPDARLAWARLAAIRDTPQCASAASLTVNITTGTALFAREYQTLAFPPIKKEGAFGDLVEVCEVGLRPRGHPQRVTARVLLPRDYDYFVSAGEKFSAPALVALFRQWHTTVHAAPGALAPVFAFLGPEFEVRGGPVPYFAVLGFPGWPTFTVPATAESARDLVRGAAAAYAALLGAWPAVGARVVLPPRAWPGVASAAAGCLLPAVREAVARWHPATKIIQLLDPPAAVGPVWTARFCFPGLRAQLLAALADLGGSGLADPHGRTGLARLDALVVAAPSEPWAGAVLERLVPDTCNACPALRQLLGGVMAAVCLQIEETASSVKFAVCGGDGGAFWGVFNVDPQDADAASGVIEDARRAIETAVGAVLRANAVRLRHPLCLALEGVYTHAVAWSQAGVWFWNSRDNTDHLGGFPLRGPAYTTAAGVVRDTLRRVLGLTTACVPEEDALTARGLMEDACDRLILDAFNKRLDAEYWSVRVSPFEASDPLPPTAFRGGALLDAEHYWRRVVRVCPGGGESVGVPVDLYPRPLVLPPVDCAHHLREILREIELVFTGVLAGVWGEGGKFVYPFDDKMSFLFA
T1 sequence (P10236 whole entry): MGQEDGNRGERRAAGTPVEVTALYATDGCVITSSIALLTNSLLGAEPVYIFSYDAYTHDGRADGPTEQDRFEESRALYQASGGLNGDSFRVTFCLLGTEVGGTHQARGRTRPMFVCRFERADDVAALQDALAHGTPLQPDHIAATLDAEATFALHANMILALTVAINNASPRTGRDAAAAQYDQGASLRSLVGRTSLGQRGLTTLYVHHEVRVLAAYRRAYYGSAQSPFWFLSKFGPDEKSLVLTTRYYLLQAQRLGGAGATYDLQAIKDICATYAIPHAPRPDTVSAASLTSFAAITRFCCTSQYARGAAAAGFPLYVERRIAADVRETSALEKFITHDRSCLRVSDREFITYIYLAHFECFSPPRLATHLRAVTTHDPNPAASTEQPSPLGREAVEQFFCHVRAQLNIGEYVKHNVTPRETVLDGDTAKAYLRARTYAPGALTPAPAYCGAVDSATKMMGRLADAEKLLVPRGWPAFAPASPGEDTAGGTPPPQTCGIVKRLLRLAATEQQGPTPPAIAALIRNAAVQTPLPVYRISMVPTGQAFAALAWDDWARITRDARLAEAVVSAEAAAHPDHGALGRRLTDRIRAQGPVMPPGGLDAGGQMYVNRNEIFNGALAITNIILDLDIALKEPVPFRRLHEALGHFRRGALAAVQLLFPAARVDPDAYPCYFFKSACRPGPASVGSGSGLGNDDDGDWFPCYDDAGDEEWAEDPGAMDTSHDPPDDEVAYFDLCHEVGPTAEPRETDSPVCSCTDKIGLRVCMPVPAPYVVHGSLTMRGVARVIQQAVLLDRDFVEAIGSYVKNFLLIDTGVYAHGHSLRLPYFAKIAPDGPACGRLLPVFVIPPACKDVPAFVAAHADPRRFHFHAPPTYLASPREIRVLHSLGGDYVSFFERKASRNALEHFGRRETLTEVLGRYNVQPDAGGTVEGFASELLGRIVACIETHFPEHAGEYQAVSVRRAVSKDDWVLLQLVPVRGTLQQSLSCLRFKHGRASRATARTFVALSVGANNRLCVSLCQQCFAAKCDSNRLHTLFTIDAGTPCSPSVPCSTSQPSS
T1 sequence (P10189 whole entry): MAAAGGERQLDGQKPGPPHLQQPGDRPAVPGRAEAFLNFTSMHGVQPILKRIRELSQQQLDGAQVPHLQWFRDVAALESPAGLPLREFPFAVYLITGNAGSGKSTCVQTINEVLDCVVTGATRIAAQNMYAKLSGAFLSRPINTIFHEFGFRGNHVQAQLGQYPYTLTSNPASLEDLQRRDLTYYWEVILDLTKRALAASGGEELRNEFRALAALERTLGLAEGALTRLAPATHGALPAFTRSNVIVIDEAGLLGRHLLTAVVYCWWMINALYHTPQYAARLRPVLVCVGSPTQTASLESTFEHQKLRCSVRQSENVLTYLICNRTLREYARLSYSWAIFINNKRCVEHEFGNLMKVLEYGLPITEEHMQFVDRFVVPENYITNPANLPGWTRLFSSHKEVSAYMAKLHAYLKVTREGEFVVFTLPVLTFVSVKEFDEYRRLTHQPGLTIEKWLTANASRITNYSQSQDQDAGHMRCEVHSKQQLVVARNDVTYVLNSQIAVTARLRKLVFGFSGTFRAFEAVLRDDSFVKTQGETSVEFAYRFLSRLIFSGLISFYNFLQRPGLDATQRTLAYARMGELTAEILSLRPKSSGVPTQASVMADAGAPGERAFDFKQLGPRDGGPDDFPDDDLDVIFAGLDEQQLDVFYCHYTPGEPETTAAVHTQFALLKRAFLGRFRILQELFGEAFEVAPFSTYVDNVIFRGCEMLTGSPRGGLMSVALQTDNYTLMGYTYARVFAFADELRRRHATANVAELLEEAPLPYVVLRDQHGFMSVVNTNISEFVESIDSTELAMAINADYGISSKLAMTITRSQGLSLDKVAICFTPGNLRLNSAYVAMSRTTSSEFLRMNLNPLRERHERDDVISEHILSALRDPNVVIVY

| SMILES | IC50 ([1]; Group 1 Table 3 entries) | EC50 [2, 4] | EC50 [3, 5] | EC50 [2, 8] | EC50 [3, 9] | further results |
| --- | --- | --- | --- | --- | --- | --- |
| CN(C(=O)CN(Cc1ccccc1)C(=O)c1ccncc1)c1ccc(-c2csc(N)n2)cc1 [Example 2] | 1.5 µM | 78 µM | 0.34 µM | – | – | – |
| Nc1nc(-c2ccc(NC(=O)CNCCc3ccccc3)cc2)cs1 [Example 2] | – | – | – | – | – | IC50 ([1]; Group 1 Table 1 entries): 4.7 µM; EC50 [2, 6]: 3.1 µM; EC50 [3, 7]: 6 µM |
| Nc1nc(-c2ccc(NC(=O)[C@@H](Cc3ccccc3)NC(=O)C3CCCCC3)cc2)cs1 [Example 2] | – | – | – | 52 µM | 0.17 µM | – |
| CC(C)(C)OC(=O)N1CCC[C@H]1C(=O)Nc1ccc(-c2csc(N)n2)cc1 [Example 4] | – | – | – | – | – | IC50 ([1]; Group 1 Table 6 entries): 0.46 µM; EC50 [2, 10]: > 64 µM; EC50 [3, 11]: 0.21 µM |
| Cc1nc(-c2ccc(NC(=O)CN(Cc3ccccc3)C(=O)C3CCCCC3)cc2)cs1 [Example 4] | 0.19 µM | 12 µM | 0.12 µM | – | – | – |
| CN(C(=O)C1CCCCC1)[C@@H](Cc1ccccc1)C(=O)Nc1ccc(-c2csc(N)n2)cc1 [Example 5] | – | – | – | 9.5 µM | 0.15 µM | IC50 ([1]; Group 1 Table 5 entries): 0.22 µM |
| Nc1nc(-c2ccc(NC(=O)[C@@H](Cc3ccccc3)NCc3ccccc3)cc2)cs1 [Example 7] | – | – | – | < 9 µM | 2.1 µM | IC50 ([1]; Group 1 Table 5 entries): 6.6 µM |
| Nc1nc(-c2ccc(NC(=O)[C@@H]3CCCN3Cc3ccccc3)cc2)cs1 [Example 7] | – | – | – | – | – | EC50 [2, 10]: > 33 µM; EC50 [3, 11]: 1.1 µM |
| CNc1nc(-c2ccc(NC(=O)CN(Cc3ccccc3)C(=O)C3CCCCC3)cc2)cs1 [Example 8] | 0.05 µM | 9 µM | 0.002 µM | – | – | – |
| Nc1nc(-c2ccc(NC(=O)CNCC3CCCCC3)cc2)cs1 [Example 8] | – | – | – | – | – | IC50 ([1]; Group 1 Table 1 entries): 2.9 µM; EC50 [2, 6]: 3.6 µM; EC50 [3, 7]: 8 µM |
| CNc1nc(-c2ccc(NC(=O)CN(CC3CCCCC3)C(=O)c3cccnc3)cc2)cs1 [Example 9] | 10 µM | 5 µM | 1.3 µM | – | – | – |
| CNc1nc(-c2ccc(NC(=O)CN(Cc3ccccc3)C(=O)OC(C)(C)C)cc2)cs1 [Example 10] | 0.31 µM | 1.1 µM | 0.008 µM | – | – | – |
| CN(C)c1nc(-c2ccc(NC(=O)CNCc3ccccc3)cc2)cs1 [Example 12] | > 50 µM | > 79 µM | 21 µM | – | – | – |
| C[C@H](NCc1ccccc1)C(=O)Nc1ccc(-c2csc(N)n2)cc1 [Example 12] | – | – | – | 4.1 µM | 0.82 µM | IC50 ([1]; Group 1 Table 5 entries): 1.3 µM |
| CN(C)c1nc(-c2ccc(NC(=O)CNCC3CCCCC3)cc2)cs1 [Example 13] | > 50 µM | 36 µM | > 4 µM | – | – | – |
| C[C@@H](NCc1ccccc1)C(=O)Nc1ccc(-c2csc(N)n2)cc1 [Example 13] | – | – | – | 14 µM | 2 µM | IC50 ([1]; Group 1 Table 5 entries): 2 µM |
| Nc1nc(-c2ccc(NC(=O)CNCc3cccs3)cc2)cs1 [Example 13] | – | – | – | – | – | IC50 ([1]; Group 1 Table 1 entries): 3.8 µM; EC50 [2, 6]: 8.3 µM; EC50 [3, 7]: 3.7 µM |
| CN(C)c1nc(-c2ccc(NC(=O)CN(Cc3ccccc3)C(=O)c3ccncc3)cc2)cs1 [Example 14] | > 50 µM | 20 µM | 0.5 µM | – | – | – |
| C[C@@H](C(=O)Nc1ccc(-c2csc(N)n2)cc1)N(Cc1ccccc1)C(=O)C1CCCCC1 [Example 14] | – | – | – | 10 µM | 0.009 µM | IC50 ([1]; Group 1 Table 5 entries): 0.11 µM |
| Nc1nc(-c2ccc(NC(=O)CNCCN3CCOCC3)cc2)cs1 [Example 14] | – | – | – | – | – | IC50 ([1]; Group 1 Table 1 entries): 7.7 µM; EC50 [2, 6]: 67 µM; EC50 [3, 7]: 3.2 µM |

Reference: patent US6288091A, “Antiherpes virus compounds and methods for their preparation and use” (Boehringer Ingelheim Ltd., priority 1999, dated 2001)
